Common to all, as to assay type: in vivo
Assay [1] has as its system Alopecurus myosuroides (ALOMY). Put plainly: Example A pre-emergence herbicidal test, glasshouse. Particulars: rate 250 g/ha, evaluated after 20 days, 100=total damage to plant, 0=no damage to plant. The protocol:
(§1) Seeds of a variety of test species were sown in standard soil in pots. After cultivation for one day (pre-emergence) or after 10 days cultivation (post-emergence) under controlled conditions in a glasshouse, the plants were sprayed with an aqueous spray solution derived from the formulation of the technical active ingredient in 0.6 ml acetone and 45 ml formulation solution containing 10.6% Emulsogen EL (Registry number 61791-12-6), 42.2% N-methylpyrrolidone, 42.2% dipropylene glycol monomethyl ether (Registry number 34590-94-8) and 0.2% X-77 (Registry number 11097-66-8). The test plants were then grown in a greenhouse under optimum conditions until, 14 or 15 days later for post-emergence and 20 days for pre-emergence, the test was evaluated (100=total damage to plant; 0=no damage to plant). Test Plants: Alopecurus myosuroides (ALOMY), Avena fatua (AVEFA), Lolium perenne (LOLPE), Setaria faberi (SETFA), Digitaria sanguinalis (DIGSA), Echinochloa crus-galli (ECHCG)

Assay [2] deals with Avena fatua (AVEFA). The description is as above. As to conditions: rate 250 g/ha, evaluated after 20 days, 100=total damage to plant, 0=no damage to plant. How it is done: as §1
The subject of assay [3] is Digitaria sanguinalis (DIGSA). The description is as above. Particulars: rate 250 g/ha, evaluated after 20 days, 100=total damage to plant, 0=no damage to plant. The protocol: as §1
For assay [4], the system named is Echinochloa crus-galli (ECHCG). The description is as above. As to conditions: rate 250 g/ha, evaluated after 20 days, 100=total damage to plant, 0=no damage to plant. How it is done: as §1
For assay [5], the system named is Lolium perenne (LOLPE). The description is as above. Particulars: rate 250 g/ha, evaluated after 20 days, 100=total damage to plant, 0=no damage to plant. How it is done: as §1
Assay [6] concerns Setaria faberi (SETFA). The assay is described as above. Particulars: rate 250 g/ha, evaluated after 20 days, 100=total damage to plant, 0=no damage to plant. The protocol:
as §1

The test system of assay [7] is Alopecurus myosuroides (ALOMY). Put plainly: Example A post-emergence herbicidal test, glasshouse. As to conditions: rate 125 g/ha, evaluated 14 or 15 days later, 100=total damage to plant, 0=no damage to plant. How it is done:
as §1

For assay [8], the system named is Avena fatua (AVEFA). The assay is described as above. As to conditions: rate 125 g/ha, evaluated 14 or 15 days later, 100=total damage to plant, 0=no damage to plant. The protocol:
as §1

Assay [9] concerns Digitaria sanguinalis (DIGSA). The description is as above. Particulars: rate 125 g/ha, evaluated 14 or 15 days later, 100=total damage to plant, 0=no damage to plant. The protocol:
as §1

The subject of assay [10] is Echinochloa crus-galli (ECHCG). Described as above. As to conditions: rate 125 g/ha, evaluated 14 or 15 days later, 100=total damage to plant, 0=no damage to plant. How it is done:
as §1

Assay [11] deals with Lolium perenne (LOLPE). Described as above. Particulars: rate 125 g/ha, evaluated 14 or 15 days later, 100=total damage to plant, 0=no damage to plant. The protocol:
as §1

Assay [12] concerns Setaria faberi (SETFA). Described as above. As to conditions: rate 125 g/ha, evaluated 14 or 15 days later, 100=total damage to plant, 0=no damage to plant. The protocol:
as §1

The subject of assay [13] is Alopecurus myosuroides (ALOMY). Put plainly: Example B post-emergence herbicidal test, glasshouse. Particulars: 312 h, rate 1000 g/ha, evaluated after 13 days, read-out: Post-Emergence Activity ALOMY (100=total damage to plant; 0=no damage to plant). The gist of the method:
(§2)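 Damage scored visually on a 0–100 scale (100 = total damage) 13 days after spraying. Pots of soil-sown plants were treated either one day after sowing or after 8 days of cultivation; spray was an aqueous dilution of an acetone/water 50:50 formulation with 0.5% Tween 20.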

The test system of assay [14] is Amaranthus retoflexus (AMARE). The assay is described as above. Particulars: Amaranthus retroflexus, 312 h, rate 1000 g/ha, evaluated after 13 days, read-out: Post-Emergence Activity AMARE (100=total damage to plant; 0=no damage to plant). The gist of the method:
as §2

The subject of assay [15] is Avena fatua (AVEFA). The description is as above. As to conditions: 312 h, rate 1000 g/ha, evaluated after 13 days, read-out: Post-Emergence Activity AVEFA (100=total damage to plant; 0=no damage to plant). The gist of the method:
as §2

Assay [16] concerns Echinochloa crus-galli (ECHCG). Described as above. Particulars: 312 h, rate 1000 g/ha, evaluated after 13 days, read-out: Post-Emergence Activity ECHCG (100=total damage to plant; 0=no damage to plant). The procedure, abridged:
as §2

Assay [17] concerns Setaria faberi (SETFA). Described as above. Particulars: 312 h, rate 1000 g/ha, evaluated after 13 days, read-out: Post-Emergence Activity SETFA (100=total damage to plant; 0=no damage to plant). The procedure, abridged:
as §2

The subject of another assay is Solanum nigrum (SOLNI). The assay is described as above. Particulars: 312 h, rate 1000 g/ha, evaluated after 13 days, read-out: Post-Emergence Activity SOLNI (100=total damage to plant; 0=no damage to plant). The gist of the method:
as §2

As for `CCc1sc(-c2ccc(Cl)cc2)nc1C1C(=O)C(C)(C)OC(C)(C)C1=O` [Compound T11, 4-[2-(4-chlorophenyl)-5-ethylthiazol-4-yl]-2,2,6,6-tetramethylpyran-3,5-dione], the “Pre-Emergence Activity ALOMY” value in [1] was 100. The “Pre-Emergence Activity AVEFA” value with Avena fatua (AVEFA) [2] was found to be 100. The “Pre-Emergence Activity DIGSA” value in assay [3] was 100. For the same compound, the “Pre-Emergence Activity ECHCG” value in [4] came to 100. For the same compound, the “Pre-Emergence Activity LOLPE” value with Lolium perenne (LOLPE) [5] amounted to 100. The “Pre-Emergence Activity SETFA” value in the assay on Setaria faberi (SETFA) [6] is 100. Moreover, the “Post-Emergence Activity ALOMY” value in [7] was 90. In the assay on Avena fatua (AVEFA) [8], the “Post-Emergence Activity AVEFA” value was 80. Further, the “Post-Emergence Activity DIGSA” value in assay [9] stood at 100. Moreover, the “Post-Emergence Activity ECHCG” value in assay [10] amounted to 100. In addition, in the assay on Lolium perenne (LOLPE) [11], the “Post-Emergence Activity LOLPE” value worked out at 60. Also, in the assay on Setaria faberi (SETFA) [12], the “Post-Emergence Activity SETFA” value is recorded as 100.

In the case of `CCc1sc(-c2ccc(Cl)cc2)nc1C1C(=O)C(C)(C)C(=O)C(C)(C)C1=O` [Compound T6], in assay [1], the “Pre-Emergence Activity ALOMY” value is 50. Moreover, the “Pre-Emergence Activity AVEFA” value in the assay on Avena fatua (AVEFA) [2] was 20. For the same compound, the “Pre-Emergence Activity DIGSA” value in assay [3] is listed as 70. For the same compound, in assay [4], the “Pre-Emergence Activity ECHCG” value amounted to 50. For the same compound, in the assay on Lolium perenne (LOLPE) [5], the “Pre-Emergence Activity LOLPE” value worked out at 80. Also, the “Pre-Emergence Activity SETFA” value in the assay on Setaria faberi (SETFA) [6] is recorded as 60. The “Post-Emergence Activity ALOMY” value in assay [7] was 70. The “Post-Emergence Activity AVEFA” value in the assay with Avena fatua (AVEFA) [8] is recorded as 60. Besides, the “Post-Emergence Activity DIGSA” value in assay [9] worked out at 70. Further, in assay [10], the “Post-Emergence Activity ECHCG” value is recorded as 70. Also, the “Post-Emergence Activity LOLPE” value with Lolium perenne (LOLPE) [11] was 30. The “Post-Emergence Activity SETFA” value in the assay on Setaria faberi (SETFA) [12] was 70. In addition, the pest or weed control at 1000 g/ha in assay [13] was 90%; in assay [14] it was 0%; in the assay with Avena fatua (AVEFA) [15], 90%; in [16], 90%; in the assay with Setaria faberi (SETFA) [17] it was 100%; in the assay on Solanum nigrum (SOLNI) it was 0%.

With `Cc1sc(-c2ccc(Cl)cc2)cc1C1C(=O)C(C)(C)OC(C)(C)C1=O` [Compound T12], the “Pre-Emergence Activity ALOMY” value in [1] was 30. In addition, the “Pre-Emergence Activity AVEFA” value with Avena fatua (AVEFA) [2] was determined as 0. For the same compound, the “Pre-Emergence Activity DIGSA” value in assay [3] turned out to be 20. For the same compound, in assay [4], the “Pre-Emergence Activity ECHCG” value turned out to be 40. Moreover, the “Pre-Emergence Activity LOLPE” value in the assay on Lolium perenne (LOLPE) [5] turned out to be 0. Further, the “Pre-Emergence Activity SETFA” value in the assay on Setaria faberi (SETFA) [6] is 0. In [7], the “Post-Emergence Activity ALOMY” value came out at 80. Also, the “Post-Emergence Activity AVEFA” value in the assay on Avena fatua (AVEFA) [8] turned out to be 70. Also, the “Post-Emergence Activity DIGSA” value in assay [9] is on record as 90. Further, in assay [10], the “Post-Emergence Activity ECHCG” value is listed as 100. Also, in the assay with Lolium perenne (LOLPE) [11], the “Post-Emergence Activity LOLPE” value is reported as 70. In addition, the “Post-Emergence Activity SETFA” value with Setaria faberi (SETFA) [12] is reported as 80.

`Cc1[se]c(-c2ccc(Cl)cc2)nc1C1C(=O)C(C)(C)OC(C)(C)C1=O` [Compound T16, 5-[2-(4-chlorophenyl)-5-methylselenazol-4-yl]-2,2,6,6-tetramethylpyran-3,5-dione]: the “Pre-Emergence Activity ALOMY” value in assay [1] was determined as 90. The “Pre-Emergence Activity AVEFA” value in the assay on Avena fatua (AVEFA) [2] was found to be 50. Further, the “Pre-Emergence Activity DIGSA” value in assay [3] is listed as 100. The “Pre-Emergence Activity ECHCG” value in [4] is listed as 60. Also, the “Pre-Emergence Activity LOLPE” value in the assay with Lolium perenne (LOLPE) [5] was 100. Further, the “Pre-Emergence Activity SETFA” value in the assay on Setaria faberi (SETFA) [6] came out at 0. Besides, the “Post-Emergence Activity ALOMY” value in [7] is 70. In addition, the “Post-Emergence Activity AVEFA” value with Avena fatua (AVEFA) [8] is reported as 70. In addition, the “Post-Emergence Activity DIGSA” value in assay [9] is listed as 90. Also, in assay [10], the “Post-Emergence Activity ECHCG” value came out at 100. Besides, the “Post-Emergence Activity LOLPE” value in the assay on Lolium perenne (LOLPE) [11] is 60. Moreover, the “Post-Emergence Activity SETFA” value with Setaria faberi (SETFA) [12] came to 90.

`Cc1sc(-c2ccc(Cl)cc2)nc1C1C(=O)C(C)(C)OC(C)(C)C1=O` [Compound T13]: the “Pre-Emergence Activity ALOMY” value in [1] was 100. Also, the “Pre-Emergence Activity AVEFA” value in the assay on Avena fatua (AVEFA) [2] was determined as 50. Also, the “Pre-Emergence Activity DIGSA” value in [3] was 100. Also, in assay [4], the “Pre-Emergence Activity ECHCG” value is listed as 100. Besides, the “Pre-Emergence Activity LOLPE” value in the assay with Lolium perenne (LOLPE) [5] worked out at 100. For the same compound, in the assay with Setaria faberi (SETFA) [6], the “Pre-Emergence Activity SETFA” value came to 100. Further, the “Post-Emergence Activity ALOMY” value in assay [7] amounted to 90. In addition, the “Post-Emergence Activity AVEFA” value in the assay on Avena fatua (AVEFA) [8] amounted to 80. Further, the “Post-Emergence Activity DIGSA” value in assay [9] is reported as 100. Moreover, the “Post-Emergence Activity ECHCG” value in assay [10] is reported as 100. In the assay on Lolium perenne (LOLPE) [11], the “Post-Emergence Activity LOLPE” value worked out at 70. For the same compound, the “Post-Emergence Activity SETFA” value in the assay on Setaria faberi (SETFA) [12] is recorded as 100.

The record behind these values is patent US8956999B2, “Herbicides” (Syngenta Limited, priority 2007, dated 2015).
